According to ChEMBL document CHEMBL3217463, “Design, synthesis and biological evaluation of -lactam hydroxamate based TACE inhibitors” (Medchemcomm, 2011):

Columns and labels:
[1] = biological target: T1, Disintegrin and metalloproteinase domain-containing protein 17 (Homo sapiens, UniProt P78536); test: Ratio of IC50 for human catalytic domain of TACE to IC50 for MMP1 (unknown origin)
[2] = biological target: T1, Disintegrin and metalloproteinase domain-containing protein 17; test: Inhibition of human catalytic domain of TACE assessed as inhibit the cleavage of the substrate by fluorescence-based FRET assay
[3] = biological target: T1, Disintegrin and metalloproteinase domain-containing protein 17; test: Ratio of IC50 for human catalytic domain of TACE to IC50 for MMP14 (unknown origin)
Interstitial collagenase = biological target: T2, Interstitial collagenase (Homo sapiens, UniProt P03956); test: Inhibition of MMP1 (unknown origin) by fluorescence-based FRET assay
T2 sequence (P03956 whole entry): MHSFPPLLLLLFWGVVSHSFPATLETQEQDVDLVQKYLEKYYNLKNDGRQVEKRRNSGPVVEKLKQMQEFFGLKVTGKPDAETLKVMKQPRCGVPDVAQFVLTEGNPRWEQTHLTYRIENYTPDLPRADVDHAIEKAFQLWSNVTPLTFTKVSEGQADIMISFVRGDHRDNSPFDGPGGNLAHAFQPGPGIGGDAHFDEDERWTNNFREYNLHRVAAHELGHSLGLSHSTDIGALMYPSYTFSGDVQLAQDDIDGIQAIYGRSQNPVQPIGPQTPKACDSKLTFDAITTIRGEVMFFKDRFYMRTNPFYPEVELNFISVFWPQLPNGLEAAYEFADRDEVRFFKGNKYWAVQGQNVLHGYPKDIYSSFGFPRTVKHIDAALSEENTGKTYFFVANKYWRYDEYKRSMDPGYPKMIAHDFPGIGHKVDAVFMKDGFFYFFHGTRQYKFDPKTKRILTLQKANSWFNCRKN

[4] = biological target: T1, Disintegrin and metalloproteinase domain-containing protein 17; test: Ratio of IC50 for human catalytic domain of TACE to IC50 for MMP9 (unknown origin)
[5] = biological target: Matrix metalloproteinase-9 (Homo sapiens, UniProt P14780); test: Inhibition of MMP9 (unknown origin) by fluorescence-based FRET assay
Sequence of Matrix metalloproteinase-9 (P14780 whole entry, the tested form may be a part): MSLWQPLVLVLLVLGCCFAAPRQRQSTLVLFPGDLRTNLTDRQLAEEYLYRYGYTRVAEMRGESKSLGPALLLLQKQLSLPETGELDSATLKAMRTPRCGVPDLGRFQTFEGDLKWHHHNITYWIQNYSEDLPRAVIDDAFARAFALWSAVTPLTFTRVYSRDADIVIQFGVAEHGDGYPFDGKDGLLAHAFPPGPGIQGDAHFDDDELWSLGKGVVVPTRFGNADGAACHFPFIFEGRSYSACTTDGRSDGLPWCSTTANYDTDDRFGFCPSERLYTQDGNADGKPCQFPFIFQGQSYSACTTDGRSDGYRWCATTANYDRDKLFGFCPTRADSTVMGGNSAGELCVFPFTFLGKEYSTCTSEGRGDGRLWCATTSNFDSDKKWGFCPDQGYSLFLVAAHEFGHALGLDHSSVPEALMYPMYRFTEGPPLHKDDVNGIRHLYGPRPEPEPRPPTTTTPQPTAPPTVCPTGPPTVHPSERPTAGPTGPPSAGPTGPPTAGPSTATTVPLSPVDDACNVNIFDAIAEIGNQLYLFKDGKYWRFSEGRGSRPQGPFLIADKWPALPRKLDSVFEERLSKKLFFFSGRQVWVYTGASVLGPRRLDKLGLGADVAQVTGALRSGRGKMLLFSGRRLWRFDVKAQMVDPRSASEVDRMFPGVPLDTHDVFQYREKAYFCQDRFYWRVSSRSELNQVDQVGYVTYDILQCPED

[6] = biological target: T1, Disintegrin and metalloproteinase domain-containing protein 17; test: Ratio of IC50 for human catalytic domain of TACE to IC50 for MMP13 (unknown origin)
[7] = biological target: T1, Disintegrin and metalloproteinase domain-containing protein 17; test: Ratio of IC50 for human catalytic domain of TACE to IC50 for MMP8 (unknown origin)
Mus musculus = test: Antiinflammatory activity in po dosed Swiss Albino mouse assessed as inhibition of LPS-induced TNFalpha secretion in blood treated 0.5 hrs before LPS and measured after 1 hr of LPS stimulus by ELISA; type: functional
[8] = biological target: T1, Disintegrin and metalloproteinase domain-containing protein 17; test: Ratio of IC50 for human catalytic domain of TACE to IC50 for ADAM10 (unknown origin)
Neutrophil collagenase = Neutrophil collagenase (Homo sapiens, UniProt P22894); test: Inhibition of MMP8 (unknown origin) by fluorescence-based FRET assay
Sequence of Neutrophil collagenase (P22894 whole entry): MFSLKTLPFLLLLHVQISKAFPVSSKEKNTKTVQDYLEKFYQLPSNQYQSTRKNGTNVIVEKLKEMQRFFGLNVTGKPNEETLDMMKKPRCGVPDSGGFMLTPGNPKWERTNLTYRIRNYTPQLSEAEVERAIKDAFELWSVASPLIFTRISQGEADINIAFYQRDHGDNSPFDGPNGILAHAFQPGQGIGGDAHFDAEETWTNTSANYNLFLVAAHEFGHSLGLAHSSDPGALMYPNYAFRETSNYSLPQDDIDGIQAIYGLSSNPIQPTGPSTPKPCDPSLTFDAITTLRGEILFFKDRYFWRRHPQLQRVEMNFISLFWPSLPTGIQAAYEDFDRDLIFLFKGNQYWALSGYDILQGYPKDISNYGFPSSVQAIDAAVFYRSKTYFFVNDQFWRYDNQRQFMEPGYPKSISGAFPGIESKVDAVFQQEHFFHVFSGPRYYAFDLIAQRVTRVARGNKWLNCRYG

[9] = biological target: 72 kDa type IV collagenase (Homo sapiens, UniProt P08253); test: Inhibition of MMP2 (unknown origin) by fluorescence-based FRET assay
Sequence of 72 kDa type IV collagenase (P08253 whole entry, the tested form may be a part): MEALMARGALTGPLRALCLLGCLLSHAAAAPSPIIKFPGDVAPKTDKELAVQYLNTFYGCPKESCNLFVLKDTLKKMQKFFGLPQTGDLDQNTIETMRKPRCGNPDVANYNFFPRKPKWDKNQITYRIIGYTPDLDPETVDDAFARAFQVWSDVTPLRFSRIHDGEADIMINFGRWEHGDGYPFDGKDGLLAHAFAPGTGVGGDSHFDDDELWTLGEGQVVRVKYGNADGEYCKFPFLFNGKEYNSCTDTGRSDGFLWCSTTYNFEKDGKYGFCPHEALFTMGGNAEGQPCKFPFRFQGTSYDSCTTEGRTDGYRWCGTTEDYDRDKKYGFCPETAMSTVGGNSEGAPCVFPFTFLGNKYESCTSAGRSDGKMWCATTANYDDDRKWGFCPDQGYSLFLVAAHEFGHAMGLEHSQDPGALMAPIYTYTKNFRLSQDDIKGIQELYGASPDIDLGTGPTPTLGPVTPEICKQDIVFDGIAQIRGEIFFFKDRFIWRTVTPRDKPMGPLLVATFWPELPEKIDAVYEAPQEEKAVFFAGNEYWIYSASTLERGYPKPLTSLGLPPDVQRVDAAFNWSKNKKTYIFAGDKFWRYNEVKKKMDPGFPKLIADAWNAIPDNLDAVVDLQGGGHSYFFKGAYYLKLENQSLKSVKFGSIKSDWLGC

[10] = biological target: T1, Disintegrin and metalloproteinase domain-containing protein 17; test: Ratio of IC50 for human catalytic domain of TACE to IC50 for MMP2 (unknown origin)
Blood = test: Antiinflammatory activity in human whole blood assessed as inhibition of LPS-induced TNFalpha secretion by ELISA; type: functional, tissue-based
[11] = biological target: T3, Disintegrin and metalloproteinase domain-containing protein 10 (Homo sapiens, UniProt O14672); test: Inhibition of ADAM10 (unknown origin) using fluorescent substrate by fluorescence-based FRET assay
T3 sequence (O14672 whole entry): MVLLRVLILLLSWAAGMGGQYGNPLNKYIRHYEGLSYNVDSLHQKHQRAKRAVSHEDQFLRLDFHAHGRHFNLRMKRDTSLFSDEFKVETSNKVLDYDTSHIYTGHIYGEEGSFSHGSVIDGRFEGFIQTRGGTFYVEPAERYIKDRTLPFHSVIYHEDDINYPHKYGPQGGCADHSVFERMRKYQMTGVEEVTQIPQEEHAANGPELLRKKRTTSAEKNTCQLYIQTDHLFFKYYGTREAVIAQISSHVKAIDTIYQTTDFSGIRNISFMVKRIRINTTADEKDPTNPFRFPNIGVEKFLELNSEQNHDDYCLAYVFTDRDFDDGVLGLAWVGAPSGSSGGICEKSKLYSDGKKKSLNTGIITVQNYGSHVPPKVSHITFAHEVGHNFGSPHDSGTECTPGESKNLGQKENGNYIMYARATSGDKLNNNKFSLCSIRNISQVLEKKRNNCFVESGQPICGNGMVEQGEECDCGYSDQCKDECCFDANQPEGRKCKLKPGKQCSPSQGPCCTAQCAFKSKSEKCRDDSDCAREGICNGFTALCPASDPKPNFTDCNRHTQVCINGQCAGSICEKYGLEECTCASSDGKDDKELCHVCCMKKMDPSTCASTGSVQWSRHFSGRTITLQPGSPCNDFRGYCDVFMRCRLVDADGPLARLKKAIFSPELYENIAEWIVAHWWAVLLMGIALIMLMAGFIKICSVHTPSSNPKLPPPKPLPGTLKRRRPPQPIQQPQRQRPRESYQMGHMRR

[12] = biological target: Matrix metalloproteinase-14 (Homo sapiens, UniProt P50281); test: Inhibition of MMP14 (unknown origin) by fluorescence-based FRET assay
Collagenase 3 = Collagenase 3 (Homo sapiens, UniProt P45452); test: Inhibition of MMP13 (unknown origin) by fluorescence-based FRET assay
[13] = biological target: T1, Disintegrin and metalloproteinase domain-containing protein 17; test: Ratio of IC50 for human catalytic domain of TACE to IC50 for MMP3 (unknown origin)
Matrilysin = biological target: T4, Matrilysin (Homo sapiens, UniProt P09237); test: Inhibition of MMP7 (unknown origin) by fluorescence-based FRET assay
T4 sequence (P09237 whole entry): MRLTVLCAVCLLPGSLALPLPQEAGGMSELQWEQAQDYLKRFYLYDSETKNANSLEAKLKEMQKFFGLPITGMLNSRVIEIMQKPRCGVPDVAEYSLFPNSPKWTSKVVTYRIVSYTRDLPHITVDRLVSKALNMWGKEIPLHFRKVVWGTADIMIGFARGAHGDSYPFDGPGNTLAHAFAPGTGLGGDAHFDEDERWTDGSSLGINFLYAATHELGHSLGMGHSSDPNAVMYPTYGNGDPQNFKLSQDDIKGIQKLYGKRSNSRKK

[14] = biological target: T1, Disintegrin and metalloproteinase domain-containing protein 17; test: Ratio of IC50 for human catalytic domain of TACE to IC50 for MMP7 (unknown origin)
Stromelysin-1 = Stromelysin-1 (Homo sapiens, UniProt P08254); test: Inhibition of MMP3 (unknown origin) by fluorescence-based FRET assay
Sequence of Stromelysin-1 (P08254 whole entry): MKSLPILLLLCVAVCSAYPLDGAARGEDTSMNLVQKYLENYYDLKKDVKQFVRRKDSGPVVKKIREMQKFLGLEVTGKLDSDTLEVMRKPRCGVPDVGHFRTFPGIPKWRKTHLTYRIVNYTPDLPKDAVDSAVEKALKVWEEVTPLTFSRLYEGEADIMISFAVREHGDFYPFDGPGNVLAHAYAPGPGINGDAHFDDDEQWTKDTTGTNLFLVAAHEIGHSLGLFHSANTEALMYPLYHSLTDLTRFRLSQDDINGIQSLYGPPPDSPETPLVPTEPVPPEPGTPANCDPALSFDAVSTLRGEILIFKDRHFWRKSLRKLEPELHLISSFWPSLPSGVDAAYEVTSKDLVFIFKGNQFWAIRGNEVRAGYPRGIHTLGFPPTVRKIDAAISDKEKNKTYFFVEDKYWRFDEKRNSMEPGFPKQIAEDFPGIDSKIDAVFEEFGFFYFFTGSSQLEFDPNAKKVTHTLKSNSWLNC

T1 sequence (P78536 whole entry, the tested form may be a part): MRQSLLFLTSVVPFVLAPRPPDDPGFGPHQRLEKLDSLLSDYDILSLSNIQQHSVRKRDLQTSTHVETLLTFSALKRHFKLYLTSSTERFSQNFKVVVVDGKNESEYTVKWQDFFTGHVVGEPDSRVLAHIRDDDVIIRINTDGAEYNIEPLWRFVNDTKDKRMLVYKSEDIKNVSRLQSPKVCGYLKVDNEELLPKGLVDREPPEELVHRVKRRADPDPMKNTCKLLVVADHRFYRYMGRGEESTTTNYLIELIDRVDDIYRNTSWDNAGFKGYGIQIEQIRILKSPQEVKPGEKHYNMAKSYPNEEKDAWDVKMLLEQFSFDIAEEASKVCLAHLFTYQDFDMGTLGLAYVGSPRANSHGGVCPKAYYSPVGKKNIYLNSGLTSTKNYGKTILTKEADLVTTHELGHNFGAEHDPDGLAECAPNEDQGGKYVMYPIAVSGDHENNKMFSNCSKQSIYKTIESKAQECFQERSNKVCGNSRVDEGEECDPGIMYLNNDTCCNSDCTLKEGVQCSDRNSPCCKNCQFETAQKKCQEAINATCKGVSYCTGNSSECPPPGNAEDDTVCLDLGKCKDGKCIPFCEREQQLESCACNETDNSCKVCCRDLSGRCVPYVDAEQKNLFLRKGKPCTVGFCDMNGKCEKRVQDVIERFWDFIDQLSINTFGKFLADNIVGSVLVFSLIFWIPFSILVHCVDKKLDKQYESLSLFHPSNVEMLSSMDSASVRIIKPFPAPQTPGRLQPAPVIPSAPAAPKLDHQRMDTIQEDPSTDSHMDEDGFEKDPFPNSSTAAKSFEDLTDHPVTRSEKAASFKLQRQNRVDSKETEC

For `COCc1cc(COc2ccc([C@]3(N)CCN([C@H](CC(C)C)C(=O)NO)C3=O)cc2)c2ccccc2n1`, the Ratio IC50 [1] was over 500, the IC50 [2] was 2.1 nM and the Ratio IC50 [3] was over 500. For the same compound, the IC50 (Interstitial collagenase) was 1130 nM, the Ratio IC50 [4] was over 500 and the IC50 [5] was 1160 nM. It also gave a Ratio IC50 [6] of over 500, a Ratio IC50 [7] of over 500 and an ED50 (Mus musculus) of 7.2 mg/kg. It also gave a Ratio IC50 [8] of over 500, an IC50 (Neutrophil collagenase) of 1010 nM and an IC50 [9] of 1170 nM. The Ratio IC50 [10] was over 500, the IC50 (Blood) was 11 nM and the IC50 [11] was 1210 nM. For the same compound, the IC50 [12] was 1070 nM, the IC50 (Collagenase 3) was 1230 nM and the Ratio IC50 [13] was over 500. It also gave an IC50 (Matrilysin) of 1240 nM, a Ratio IC50 [14] of over 500 and an IC50 (Stromelysin-1) of 1080 nM.
`CC(C)C[C@H](C(=O)NO)N1CC[C@@](N)(c2ccc(OCc3cc(-c4ccc(F)cc4)nc4ccccc34)cc2)C1=O` was tested, and the IC50 (Blood) was 290 nM.
